{"source": "paper PMC7217877", "about": "“N-AS-triggered SPMs are direct regulators of microglia in a model of Alzheimer’s disease” (Nature Communications, 2020)", "assay_in_all_cases": "in vitro [14C] acetylation assay of purified COX2", "assay_type_in_all_cases": "biochemical", "conditions_in_all_cases": "replicates, listed as C14 N-AS", "key": {"COX2 S565A": {"biological_target": "T1, COX2 S565A (Homo sapiens, UniProt P35354, S565A)", "T1 construct": "His (N); made in house", "T1 sequence (P35354 18-604 S565A)": "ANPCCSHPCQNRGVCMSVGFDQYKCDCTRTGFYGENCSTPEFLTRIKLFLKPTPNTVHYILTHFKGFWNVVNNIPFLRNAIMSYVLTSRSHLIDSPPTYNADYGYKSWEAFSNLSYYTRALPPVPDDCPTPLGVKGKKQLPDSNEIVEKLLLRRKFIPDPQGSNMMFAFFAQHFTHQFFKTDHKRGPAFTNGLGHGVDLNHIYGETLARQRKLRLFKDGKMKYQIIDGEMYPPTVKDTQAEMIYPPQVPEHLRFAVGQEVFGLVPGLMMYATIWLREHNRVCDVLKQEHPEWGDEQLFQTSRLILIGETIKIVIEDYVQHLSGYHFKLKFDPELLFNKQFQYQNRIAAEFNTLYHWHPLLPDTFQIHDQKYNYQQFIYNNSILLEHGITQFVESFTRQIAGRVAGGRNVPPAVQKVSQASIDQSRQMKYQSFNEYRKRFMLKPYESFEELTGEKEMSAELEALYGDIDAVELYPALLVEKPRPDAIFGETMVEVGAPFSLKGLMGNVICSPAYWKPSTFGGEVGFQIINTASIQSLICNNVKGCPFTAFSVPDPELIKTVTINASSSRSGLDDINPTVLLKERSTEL", "text": "(§1) Single point mutations in SphK1 (R56A, R57A, R24A, R185A, D178A, and F192A) and COX2 (S565A, N181A, T564A, and S567A) were generated using the In-Fusion Cloning Kits (Clontech) and ORF cDNA expression plasmids of human SphK1 and COX2 gene (Sino Biological Inc, HG15679-NH and HG12036-NH), according to the manufacturer’s instructions. The forward and reverse primers described in Supplementary Table 4. The SphK1 WT, SphK1 mutants, COX2 WT, and COX2 mutant plasmids were transformed in the One shot TOP 10 competent cell (Invitrogen). The bacteria were grown in Luria-Bertani (LB, Invitrogen) plates supplemented with 50 μg ml^−1 kanamycin (Sigma-Aldrich) at 37 °C. The bacterial cell pellets were resuspended in lysis buffer containing 20 mM sodium phosphate (GE Healthcare), 500 mM NaCl (GE Healthcare), 20 mM imidazole (pH 7.4) (GE Healthcare), 0.2 mg ml^−1 lysozyme (Sigma-Aldrich), 20 μg ml^−1 DNase I (Roche), 1 mM MgCl2 (Sigma-Aldrich), and 1 mM PMSF (Sigma-Aldrich) before being lysed by sonication and clarified by centrifugation at 15,493×g for 10 min. Proteins were purified from the soluble fraction using His-Spin Trap columns (GE Healthcare) and the binding and acetylation assays were performed.\n(§2) Acetylation assays were performed according to previously described procedures with minor modifications. […] To confirm the N-AS-mediated COX2 acetylation, 10 μg COX2 (WT or mutants) was used incubated with [^14C] N-AS (2 μCi, ARC UK Ltd, ARC-1024) at 37 °C for 2 h. [^14C] aspirin (2 μCi, ARC UK Ltd, ARC-0473) was conducted as the positive control. The reactions were terminated by placing the reaction tubes in ice for 5 min. To evaluate in vivo neuronal and microglial COX2 acetylation, 10 μCi [^14C] N-AS was orally administrated to 9-months-old WT and APP/PS1 mice. After 1 h, neuron and microglia were isolated and sonicated in culture media. […] Acetylated COX2 proteins bound to the beads were analyzed using a Tri-Carb 3110TR liquid scintillation counter (Perkin-Elmer)."}, "COX2 S567A": {"biological_target": "T2, COX2 S567A (Homo sapiens, UniProt P35354, S567A)", "T2 construct": "His (N); made in house", "T2 sequence (P35354 18-604 S567A)": "T1 sequence (P35354 18-604 S565A) with A548S, S550A", "text": "as §1, §2"}, "COX2 N181A": {"biological_target": "T3, COX2 N181A (Homo sapiens, UniProt P35354, N181A)", "T3 construct": "His (N); made in house", "T3 sequence (P35354 18-604 N181A)": "T1 sequence (P35354 18-604 S565A) with N164A, A548S", "text": "as §1, §2"}}, "note": "Substitutions are numbered along the chain they refer to. “And” between values parts separate entries of the source, which are not always exact repeats. Equal entries are not always repeated."}
{"smiles": "CCCCCCCCCCCCC/C=C/[C@@H](O)[C@H](CO)NC(C)=O", "note": "[N-AS, N-((2S,3R,E)-1,3-Dihydroxyoctadec-4-en-2-yl)acetamide]", "values": [{"measurement": "C14 radioactivity of COX2, acetylation assay (Fig 1h)", "setting": "COX2 S565A", "value": "117550 and 118051 and 117876 and 111509 and 116124 and 117620"}, {"measurement": "C14 radioactivity of COX2, acetylation assay (Fig 1h)", "setting": "COX2 S567A", "value": "185354 and 188203 and 187860 and 187573 and 187463 and 187847"}, {"measurement": "C14 radioactivity of COX2, acetylation assay (Fig 1h)", "setting": "COX2 N181A", "value": "141977 and 143404 and 142984 and 143554 and 143318 and 142968"}]}
